Laboratory results published in ChEMBL document CHEMBL2057178, “Novel synthetic route to the C-nucleoside, 2-deoxy benzamide riboside” (Bioorg Med Chem Lett, 2012).
Active and inactive are the calls of the source.

Key:
Assay type in all cases: functional, cell-based
DU-145 = experiment: Growth inhibition of human DU145 cells up to 1 mM relative to DMSO-treated control
PC-3 [1] = experiment: Growth inhibition of human PC3 cells up to 1 mM relative to DMSO-treated control
T47D = experiment: Growth inhibition of human T47D cells up to 1 mM relative to DMSO-treated control
MCF7 [2] = experiment: Growth inhibition of human MCF7 cells up to 1 mM relative to DMSO-treated control
NCI-H460 = experiment: Growth inhibition of human H460 cells up to 1 mM relative to DMSO-treated control
HCT-116 = experiment: Growth inhibition of human HCT116 cells up to 1 mM relative to DMSO-treated control
HT-29 = experiment: Growth inhibition of human HT-29 cells up to 1 mM relative to DMSO-treated control
RKO = experiment: Growth inhibition of human RKO cells up to 1 mM relative to DMSO-treated control
MCF7 [3] = experiment: Growth inhibition of human MCF7 cells at 50 uM
PC-3 [4] = experiment: Growth inhibition of human PC3 cells at 500 uM

Measured: growth inhibition (GI)

NC(=O)c1cccc([C@H]2C[C@H](O)[C@@H](CO)O2)c1 (racemic)
inactive: DU-145 | PC-3 [1] | T47D | MCF7 [2] | NCI-H460 | HCT-116 | HT-29 | RKO

NC(=O)c1cccc([C@@H]2O[C@H](CO)[C@@H](O)[C@H]2O)c1
active: MCF7 [3]

NC(=O)c1csc([C@@H]2O[C@H](CO)[C@@H](O)[C@H]2O)n1
active: PC-3 [4]
